Reference: patent publication US7776863B2, “Methods of treating HIV infection” (priority 2004, dated 2010)

Tested on: HIV-1 LAI
Assay: microbe, parasite or virus in culture
Details: for Combination Indices at % HIV Inhibition (Confidence Interval) 50% / Combination Indices at % HIV Inhibition (Confidence Interval) 75% / Combination Indices at % HIV Inhibition (Confidence Interval) 90% / Overall Result (combined anti-HIV effect): Compound 1 + named drug; for Combination Indices at % HIV Inhibition (Confidence Interval) 50% / Combination Indices at % HIV Inhibition (Confidence Interval) 75% / Combination Indices at % HIV Inhibition (Confidence Interval) 90%: 95% confidence interval in parentheses; for Overall Result (combined anti-HIV effect): all ratios, MT-2 cells, HIV-1 LAI; for EC50: Human immunodeficiency virus 1, MT2, 120 h
Procedure: Virus and cell lines. The T-cell lines, MT-2 and PM-1 were obtained through the AIDS Research and Reference Reagent Program, NIAID, and were contributed by Dr. D. Richman and Dr. R. Gallo, respectively. Both cell lines were cultured in RPMI 1640 medium supplemented with 10% fetal bovine serum, 2 mM L-glutamine and sub-cultured twice a week. The LAI strain of HIV-1 was obtained from the Fred Hutchinson Cancer Research Center, and the Bal strain was from NIH. Both virus stocks were amplified and titered in MT-2 cells (LAI) and PM-1 cells (Bal) using a virus infectivity assay.
Drug Susceptibility and Cytotoxicity Assays. For drug susceptibility assays, MT-2 cells were infected with HIV-1 LAI (or PM-1 cells with HIV-1 Bal) at an MOI of 0.005, and seeded into 96-well microtiter plates (0.1×10^6 cells/ml) containing serial dilutions of test compounds. […] Each drug ratio consisted of an array of 3-fold serial dilutions, and was performed in quadruplicate. The plates were incubated at 37° C./5% CO2. The MT-2 cells infected with HIV-1 LAI were incubated for 5 days. On day-five post-infection, 20 μl from each well was harvested and quantitated by a reverse transcriptase (RT) assay, or in samples involving non-nucleoside RT inhibitors, an MTS assay. The PM-1 cells infected with HIV-1 Bal and used for studying the combinations with CCR5 inhibitors were incubated for six days. On day-six post-infection, 20 μl from each well was harvested, 20- and 50-fold diluted and quantitated by p24 assay. Cytotoxicity assays were performed using uninfected cells, exposed to the same drug combinations, and incubated for six days. Cell viability was determined by an MTS assay. The CC50 values were calculated by using the exponential form of the median effect equation as mentioned below for calculation of EC50.
Analysis of Drug Combination Effects. For determination of CI values, drugs were diluted in a fixed ratio and multiple ratios were analyzed. The drug serial dilutions spanned a range of concentrations near the EC50 value of each compound, so that equivalent antiviral activities could be compared. Concentration-response curves were estimated for each individual drug and every combination using the median-effect equation. The equation was fit using a nonlinear regression routine (Proc Nlin) in PC SAS version 8.01 (SAS Institute Inc., SAS Version 8.01, Cary, N.C.: SAS Institute Inc., 1990).
In this equation, Fa stands for “fraction affected,” and represents the fraction of the viral load that has been inactivated. […] ED50 is drug concentration that is expected to reduce the amount of virus by 50%, and m is a parameter that reflects the slope of the concentration-response curve.
To assess antiviral effects of different drug combination treatments, combination indices (CIs) were calculated according to Chou and Rideout. The combination index was computed as CI=[D]1/[Dm]1+[D]2/[Dm]2
In this equation [Dm]1 and [Dm]2 are the concentrations of drugs that would individually produce a specific level of effect, while [D]1 and [D]2 are the concentrations of drugs in combination that would produce the same level of effect.
Theoretically, additivity is implied if the CI is equal to one, synergy if the CI is less than one, and antagonism if the CI is greater than one. […] At best, we can construct a range that contains the likely values for the CI, given the noise in the data. In this report, these ranges are reported in parentheses next to each point estimate of the CI. […] If the range fell entirely above 1.0, we would infer antagonistic behavior. If the range were to include 1.0, we would infer additivity.
In carrying out the combination experiments below, the EC50 for Compound 1 and each comparator compound was determined during the course of each study, and used in the subsequent data analysis.

[1] = EC50 ratio 1:1 (Compound 1:comparator)
[2] = EC50 ratio 1:2.5 (Compound 1:comparator)
[3] = EC50 ratio 2.5:1 (Compound 1:comparator)

SMILES | Combination Indices at % HIV Inhibition (Confidence Interval) 50% [1] | Combination Indices at % HIV Inhibition (Confidence Interval) 75% [1] | Combination Indices at % HIV Inhibition (Confidence Interval) 90% [1] | Combination Indices at % HIV Inhibition (Confidence Interval) 50% [2] | Combination Indices at % HIV Inhibition (Confidence Interval) 75% [2] | Combination Indices at % HIV Inhibition (Confidence Interval) 90% [2] | Combination Indices at % HIV Inhibition (Confidence Interval) 50% [3] | Combination Indices at % HIV Inhibition (Confidence Interval) 75% [3] | Combination Indices at % HIV Inhibition (Confidence Interval) 90% [3] | Overall Result (combined anti-HIV effect) | EC50 [nM] | Overall Result (combined anti-HIV effect) (listed as efavirenz)
CC(C)CN(C[C@@H](O)[C@H](Cc1ccccc1)NC(=O)O[C@H]1CCOC1)S(=O)(=O)c1ccc(N)cc1 [Amprenavir, amprenavir] | 0.14 (0.11, 0.17) | 0.35 (0.26, 0.45) | 0.87 (0.46, 1.28) | 0.13 (0.09, 0.17) | 0.27 (0.17, 0.38) | 0.58 (0.19, 0.97) | 0.46 (0.32, 0.60) | 0.79 (0.46, 1.11) | 1.33 (0.42, 2.25) | Additive- | 11 | 
O=C1Nc2ccc(Cl)cc2[C@@](C#CC2CC2)(C(F)(F)F)O1 [Efavirenz, efavirenz] | 0.70 (0.50, 0.89) |  | 0.32 (0.13, 0.50) | 0.47 (0.28, 0.65) | 0.46 (0.21, 0.70) | 0.45 (0.06, 0.83) | 0.52 (0.36, 0.69) | 0.39 (0.21, 0.57) | 0.30 (0.08, 0.51) | Synergistic | 1 | synergistic
CC(C)(C)NC(=O)[C@@H]1CN(Cc2cccnc2)CCN1C[C@@H](O)C[C@@H](Cc1ccccc1)C(=O)N[C@H]1c2ccccc2C[C@H]1O [Indinavir, indinavir] | 0.41 (0.26, 0.56) | 0.69 (0.34, 1.04) | 1.59 (0.29, 2.90) | 0.30 (0.18, 0.41) | 0.62 (0.32, 0.92) | 1.96 (0.29, 3.64) | 0.05 (0.03, 0.06) | 0.16 (0.13, 0.20) | 0.68 (0.39, 0.98) | Additive- | 3 | 
Nc1nc(=O)n([C@@H]2CS[C@H](CO)O2)cc1F [Emtricitabine, emtricitabine] | 0.42 (0.35, 0.50) | 0.49 (0.37, 0.61) |  | 0.19 (0.15, 0.22) | 0.35 (0.26, 0.44) | 0.67 (0.36, 0.99) | 0.11 (0.09, 0.12) | 0.26 (0.21, 0.31) | 0.67 (0.44, 0.89) | Synergistic | 25 | 
